Assays:
Kuramochi cells RB-WT = experiment: IncuCyte Kuramochi cell proliferation assay, RB-WT; assay type: cell-based; settings: 72 hours, cell count
Procedure: IncuCyte® assay was used to measure the effect of disclosed compounds on cell proliferation. Fluorescent microscopy images of cells were taken immediately after compound treatment and 72 hours later. Image analysis software was used to obtain cell counts as a function of compound concentration. Kuramochi cells labeled with mApple-H2B were seeded on 384-well assay-ready plates. Plates were placed in an IncuCyte® (Sartorius) and scanned at 0 and 72 hours. IncuCyte® software was used to count the number of fluorescent nuclei in each well. The fold change in cell count from 0 to 72 hours in wells treated with increasing compounds concentrations (10 pts, 1/2 log dilution, 20 µM top concentration) was normalized to DMSO control wells. The normalized cell counts were fit with dose response curves and a GI50 was calculated.

CDK2/Cyclin E1 = CDK2/Cyclin E1 (Homo sapiens, UniProt P24941); experiment: ADP-Glo Luminescent Kinase Assay (CDK2/E1-37C); assay type: biochemical; settings: 0.18 nM CDK2/Cyclin E1, 100 μM ATP, Histone H1, 37° C.; read-out: ADPGLO (CDK2/E1-37C): IC50
Procedure: Inhibition of CDK2/Cyclin E1 activity by the presence of small molecules was evaluated using ADP-Glo Luminescent Kinase Assay (Promega). Activated CDK2/Cyclin E1 was incubated with its substrate Histone H1 (SignalChem H10-54N) in the kinase reaction buffer (100 μM ATP, 50 mM HEPES pH 7.5, 10 mM MgCl2, 1 mM EDTA, 2 mM DTT, 0.01% Brij35, 0.5 mg/mL BSA). Luminescence was recorded with an Envision plate reader (PerkinElmer).
Dose titrations of inhibitors in 100% DMSO were combined with 0.36 nM CDK2/Cyclin E1 in reaction buffer. The mixtures were incubated for 60 minutes at 37° C. before the addition of ATP and Histone H1 substrate to initiate the kinase reaction. The final conditions were 0.18 nM CDK2/Cyclin E1, 100 μM ATP, and […] Histone H1. The reactions were incubated at 37° C. for 90 minutes before being stopped with the addition of ADP-Glo reagent. This mixture was incubated at room temperature for 60 minutes before Kinase Detection Solution is added to generate luminescence. The stopped reactions were analyzed on an Envision plate reader. The conversion ratios were normalized to yield % activity, plotted against compound concentration, and fit to a four-parameter equation to determine the IC50 for each compound.

Structure (SMILES)	IC50 (CDK2/Cyclin E1) [µM]	IC50 (Kuramochi cells RB-WT) [µM]
CC(C)(C(=O)N1CC2(CN(C(=O)c3cnn(Cc4ccc(F)cc4)c3)C[C@H]2COCc2ccccc2C(=O)O)C1)C(F)(F)F [I′-11]	> 10	–
CC(C)(C(=O)N1CC2(CN(C(=O)c3cnn(Cc4ccc(F)cc4)c3)C[C@H]2COCc2cccc(C3=CCCC3)c2C(=O)O)C1)C(F)(F)F [I′-12]	≤ 0.5	–
CC(C)(C(=O)N1CC2(CN(C(=O)c3cnn(Cc4ccc(F)cc4)c3)C[C@H]2COCc2c(F)ccc(C3CCC(F)(F)CC3)c2C(=O)O)C1)C(F)(F)F [I′-13]	≤ 0.5	–
CC(C)(C(=O)N1CC2(C1)CN(c1cc(F)c(F)c3ncsc13)C[C@H]2COCc1c(F)ccc(C2CCC(F)(F)CC2)c1C(=O)O)C(F)(F)F [I′-14, (S)-2-(((6-(4,5-difluorobenzo[d]thiazol-7-yl)-2-(3,3,3-trifluoro-2,2-dimethylpropanoyl)-2,6-diazaspiro[3.4]octan-8-yl)methoxy)methyl)-6-(4,4-difluorocyclohexyl)-3-fluorobenzoic acid]	≤ 0.5	–
O=C(O)c1c(COC[C@@H]2CN(C(=O)c3cnn(Cc4ccc(F)cc4)c3)CC23CN(C(=O)C2CCOCC2)C3)cccc1C1CCC(F)(F)CC1 [I′-15]	0.5 to 5	–
CC(C)C(=O)N1CC2(CN(C(=O)c3cnn(Cc4ccc(F)cc4)c3)C[C@H]2COCc2cccc(C3CCC(F)(F)CC3)c2C(=O)O)C1 [I′-16, (S)-2-(4,4-difluorocyclohexyl)-6-(((6-(1-(4-fluorobenzyl)-1H-pyrazole-4-carbonyl)-2-isobutyryl-2,6-diazaspiro[3.4]octan-8-yl)methoxy)methyl)benzoic acid]	≤ 0.5	–
O=C(O)c1c(COC[C@@H]2CN(C(=O)c3cnn(Cc4ccc(F)cc4)c3)CC23CN(C(=O)C24CC(C2)C4)C3)cccc1C1CCC(F)(F)CC1 [I′-17, (S)-2-(((2-(bicyclo[11.1.1]pentane-1-carbonyl)-6-(1-(4-fluorobenzyl)-1H-pyrazole-4-carbonyl)-2,6-diazaspiro[3.4]octan-8-yl)methoxy)methyl)-6-(4,4-difluorocyclohexyl)benzoic acid]	≤ 0.5	–
CN(C)CCNC(=O)c1c(COC[C@@H]2CN(C(=O)c3cnn(Cc4ccc(F)cc4)c3)CC23CN(C(=O)C(C)(C)C(F)(F)F)C3)cccc1C1CCC(F)(F)CC1 [I′-18]	≤ 0.5	–

Continued, in another order:

IC50 (CDK2/Cyclin E1) [µM]	Structure (SMILES)	IC50 (Kuramochi cells RB-WT) [µM]
5 to 10	O=C(NS(=O)(=O)c1cccc(C2CCCCC2)c1)C1CN(C(=O)c2cnn(Cc3ccccc3)c2)CC12CN(C(=O)[C@H]1CC1(F)F)C2 (stereo partly drawn) [Compound I-1, 6-(1-benzyl-1H-pyrazole-4-carbonyl)-N-((3-cyclohexylphenyl)sulfonyl)-2-((R)-2,2-difluorocyclopropane-1-carbonyl)-2,6-diazaspiro[3.4]octane-8-carboxamide]	> 10
5 to 10	N#Cc1ccc(Cn2cc(C(=O)N3CC(CS(=O)(=O)Cc4cccc(-c5ccc(C(F)(F)F)cc5)n4)C4(C3)CN(C(=O)C3(C(F)(F)F)CC3)C4)cn2)cc1 (stereo not shown) [Compound I-2]	> 10
> 10	O=C(c1cnc(O)cn1)N1CC(CS(=O)(=O)Cc2cccc(-c3ccc(C(F)(F)F)cc3)n2)C2(C1)CN(C(=O)[C@H]1CC1(F)F)C2 (stereo partly drawn) [Compound I-3, (2-((R)-2,2-difluorocyclopropane-1-carbonyl)-8-((((6-(4-(trifluoromethyl)phenyl)pyridin-2-yl)methyl)sulfonyl)methyl)-2,6-diazaspiro[3.4]octan-6-yl)(5-hydroxypyrazin-2-yl)methanone]	> 10
≤ 0.5	O=C(O)c1c(COC[C@@H]2CN(C(=O)c3cnn(Cc4ccc(F)cc4)c3)CC23CN(C(=O)C2(C(F)(F)F)CC2)C3)cccc1C1CCC(F)(F)CC1 [Compound I-51, (S)-2-(4,4-difluorocyclohexyl)-6-(((6-(1-(4-fluorobenzyl)-1H-pyrazole-4-carbonyl)-2-(1-(trifluoromethyl)cyclopropanecarbonyl)-2,6-diazaspiro[3.4]octan-8-yl)methoxy)methyl) benzoic acid]	5 to 10
5 to 10	O=C(O)c1c(COCC2CN(C(=O)c3cnn(Cc4ccc(C(F)(F)F)cc4)c3)CC23CN(C(=O)C2(C(F)(F)F)CC2)C3)cccc1C1CCC(C(F)(F)F)CC1 (stereo not shown) [Compound I-52, 2-(((6-(1-(4-(trifluoromethyl)benzyl)-1H-pyrazole-4-carbonyl)-2-(1-(trifluoromethyl)cyclopropane-1-carbonyl)-2,6-diazaspiro[3.4]octan-8-yl)methoxy)methyl)-6-(4-(trifluoromethyl)cyclohexyl)benzoic acid]	> 10
> 10	O=C(NS(=O)(=O)c1cccc(C2CCOCC2)c1)C1CN(c2cc(F)cc3ncsc23)CC12CN(C(=O)C1(C(F)(F)F)CC1)C2 (stereo not shown) [Compound I-53, 6-(5-fluorobenzo[d]thiazol-7-yl)-N-((3-(tetrahydro-2H-pyran-4-yl)phenyl)sulfonyl)-2-(1-(trifluoromethyl)cyclopropane-1-carbonyl)-2,6-diazaspiro[3.4]octane-8-carboxamide]	> 10
≤ 0.5	CC1(C)C[C@@H]1C(=O)N1CC2(CN(C(=O)c3cnn(Cc4ccccc4C(=O)O)c3)C[C@H]2COCc2cccc(C3CCC(C(F)(F)F)CC3)n2)C1 (stereo partly drawn) [Compound I-54, 2-((4-((S)-2-((S)-2,2-dimethylcyclopropane-1-carbonyl)-8-(((6-(4-(trifluoromethyl)cyclohexyl)pyridin-2-yl)methoxy)methyl)-2,6-diazaspiro[3.4]octane-6-carbonyl)-1H-pyrazol-1-yl)methyl)benzoic acid]	> 10
> 10	COC(=O)c1c(O)cc(COCC2CN(C(=O)c3cnn(Cc4ccc(C(F)(F)F)cc4)c3)CC23CN(C(=O)C2(C(F)(F)F)CC2)C3)cc1-c1ccc(C(F)(F)F)cc1 (stereo not shown) [Compound I-55, methyl 3-hydroxy-4′-(trifluoromethyl)-5-(((6-(1-(4-(trifluoromethyl)benzyl)-1H-pyrazole-4-carbonyl)-2-(1-(trifluoromethyl)cyclopropane-1-carbonyl)-2,6-diazaspiro[3.4]octan-8-yl)methoxy)methyl)-[1,1′-biphenyl]-2-carboxylate]	5 to 10
5 to 10	CC1(C)C[C@@H]1C(=O)N1CC2(CN(C(=O)c3cncs3)CC2COCC(=O)N2CCC(c3ccc(C(=O)O)cc3OC3CCCCC3)CC2)C1 (stereo partly drawn) [Compound I-56, 3-(cyclohexyloxy)-4-(1-(2-((2-((S)-2,2-dimethylcyclopropane-1-carbonyl)-6-(thiazole-5-carbonyl)-2,6-diazaspiro[3.4]octan-8-yl)methoxy)acetyl)piperidin-4-yl)benzoic acid]	> 10
> 10	CC(C)(C)OC(=O)c1c(COCC2CN(c3cc(F)cc4ncsc34)CC23CN(C(=O)C2(C(F)(F)F)CC2)C3)cccc1C1CCC(C(F)(F)F)CC1 (stereo not shown) [Compound I-57, tert-butyl 2-(((6-(5-fluorobenzo[d]thiazol-7-yl)-2-(1-(trifluoromethyl)cyclopropane-1-carbonyl)-2,6-diazaspiro[3.4]octan-8-yl)methoxy)methyl)-6-(4-(trifluoromethyl)cyclohexyl)benzoate]	> 10
> 10	O=C(NS(=O)(=O)c1cccc(C2CCOCC2)c1)[C@@H]1CN(C(=O)c2cnn(Cc3ccc(C(F)(F)F)cc3)c2)CC12CN(C(=O)C1(C(F)(F)F)CC1)C2 [Compound I-58, (S)—N-((3-(tetrahydro-2H-pyran-4-yl)phenyl)sulfonyl)-6-(1-(4-(trifluoromethyl)benzyl)-1H-pyrazole-4-carbonyl)-2-(1-(trifluoromethyl)cyclopropane-1-carbonyl)-2,6-diazaspiro[3.4]octane-8-carboxamide]	> 10
> 10	N#Cc1ccc(Cn2cc(C(=O)N3CC(C(=O)NS(=O)(=O)c4cccc(C5(C(F)(F)F)CC5)c4)C4(C3)CN(C(=O)C3(C(F)(F)F)CC3)C4)cn2)cc1 (stereo not shown) [Compound I-59, 6-(1-(4-cyanobenzyl)-1H-pyrazole-4-carbonyl)-2-(1-(trifluoromethyl)cyclopropane-1-carbonyl)-N-((3-(1-(trifluoromethyl)cyclopropyl)phenyl)sulfonyl)-2,6-diazaspiro[3.4]octane-8-carboxamide]	> 10
> 10	O=C(O)c1ccc(C2CCN(C(=O)COCC3CN(C(=O)c4cnn(Cc5ccccc5)c4)CC34CN(C(=O)C3(C(F)(F)F)CC3)C4)CC2)c(OC2CCCCC2)c1 (stereo not shown) [Compound I-60, 4-(1-(2-((6-(1-benzyl-1H-pyrazole-4-carbonyl)-2-(1-(trifluoromethyl)cyclopropane-1-carbonyl)-2,6-diazaspiro[3.4]octan-8-yl)methoxy)acetyl)piperidin-4-yl)-3-(cyclohexyloxy)benzoic acid]	> 10

From patent publication US20260034123A1 (Cedilla Therapeutics, Inc., priority 2022, published 2026)
